Data taken from PubChem BioAssay (NCI).
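Tested at 5 concentrations; 48 h exposure; 96-well plates; endpoints linearly interpolated, else capped at highest concentration. TGI marks complete inhibition of growth.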

How the values were obtained:
Assay in all cases: inhibition of tumour cell growth, NCI panel, 48 h
BT-549 breast = tested on: BT-549 breast
DU-145 prostate = tested on: DU-145 prostate
HL-60(TB) leukemia = tested on: HL-60(TB) leukemia
M14 melanoma = tested on: M14 melanoma
MDA-MB-231 breast = tested on: MDA-MB-231 breast
NCI-H522 lung = tested on: NCI-H522 lung
NCI/ADR-RES ovarian = tested on: NCI/ADR-RES ovarian
SK-OV-3 ovarian = tested on: SK-OV-3 ovarian
UACC-257 melanoma = tested on: UACC-257 melanoma
EKVX NSCLC = tested on: EKVX NSCLC
MCF7 breast = tested on: MCF7 breast

| SMILES | TGI (BT-549 breast) [µM] | TGI (DU-145 prostate) [µM] | TGI (HL-60(TB) leukemia) [µM] | TGI (M14 melanoma) [µM] | TGI (MDA-MB-231 breast) [µM] | TGI (NCI-H522 lung) [µM] | TGI (NCI/ADR-RES ovarian) [µM] | TGI (SK-OV-3 ovarian) [µM] | TGI (UACC-257 melanoma) [µM] | TGI (EKVX NSCLC) [µM] | TGI (MCF7 breast) [µM] |
| --- | --- | --- | --- | --- | --- | --- | --- | --- | --- | --- | --- |
| CC1OC2OC3C(OCC(O)C3O)OC(=O)[C@]34CCC(C)(C)CC3C3=CCC5[C@@]6(C)C[C@H](O)[C@H](OC7OC(CO)C(O)C(O)C7OC7OC(COC(=O)CC(C)(O)CC(=O)OC1C(OC1OC(CO)C(O)C(O)C1O)C2O)C(O)C(O)C7O)[C@@](C)(CO)C6CC[C@@]5(C)[C@]3(C)CC4 (stereo partly specified) | 19.3 | 8.51 | 3.13 | 8.44 | 16.4 | 5.89 | 11.7 | 22.4 | 4.24 | – | – |
| CO[C@H](C)[C@](O)(C(=O)OCC1=CCN2CC[C@@H](O)[C@H]12)C(C)C | > 100 | > 100 | – | > 100 | > 100 | > 100 | > 100 | > 100 | > 100 | > 100 | > 100 |
| CC(=O)OC1COC(N2c3ccccc3[C@@H]3CCc4c([nH]c5ccccc45)[C@@H]32)C(OC(C)=O)C1OC(C)=O (mixture of isomers) | > 100 | > 100 | – | > 100 | > 100 | > 100 | – | > 100 | > 100 | > 100 | – |
| CN1C2CCC1C(CO)C(=O)C2 (stereo unspecified) | > 100 | > 100 | 26.2 | – | > 100 | 34.2 | > 100 | > 100 | > 100 | – | 56.5 |
| COc1cccc(Nc2nc3c([nH]2)c(=O)n(C)c(=O)n3C)c1 | – | > 10 | > 10 | > 10 | > 10 | – | – | > 10 | > 10 | > 10 | > 10 |
| C=C1C[C@@H]2CC[C@@]34CC5O[C@H]6C(O[C@H]7CC[C@H](CC(=O)O[C@@H]8[C@@H](C)[C@@H]9O[C@@H]%10C[C@]%11(C[C@@H]%12O[C@]%13(C[C@H](C)[C@@H]%14O[C@@H]%15CC(C(COC(C)=O)OC(C)=O)O[C@@H]%15C[C@@H]%14O%13)C[C@H](C)[C@@H]%12O%11)O[C@@H]%10C[C@@H]9O[C@H]8CC8O[C@@H](CC[C@@H]1O2)C[C@@H](C)C8(O)CO)O[C@@H]7[C@@H]6O3)[C@H]5O4 (stereo partly specified) | 0.751 | > 1 | – | > 1 | > 1 | 0.417 | > 1 | > 1 | > 0.53 | > 1 | > 1 |
| CCc1nc2c([nH]1)C(=O)c1ccccc1C2=O | – | – | 94.7 | > 100 | – | > 100 | – | > 100 | 78 | > 100 | – |
| CC(=O)N=S(NC(=O)c1ccc(C)cc1)C(Cl)(Cl)Cl (stereo unspecified) | – | > 100 | 26.9 | 31.8 | 68 | – | 49.1 | > 100 | > 100 | > 100 | > 100 |
| O=C(O)C12C3C4(C(=O)O)C1C1(C(=O)O)C2C3(C(=O)O)C41 (stereo unspecified) | > 100 | > 100 | > 100 | > 100 | > 100 | > 100 | > 100 | – | > 100 | > 100 | > 100 |
| CCOC(=O)OC1(c2ccccc2)CCN(C)CC1 | – | > 100 | > 100 | > 100 | > 100 | > 100 | > 100 | > 100 | > 100 | > 100 | > 100 |
| CC(C)(C)C#CI1OC(=O)c2ccccc21 | 11.7 | 17.8 | – | 15.3 | 34 | 3.82 | > 45.4 | 25.1 | 25.7 | 17.5 | 15.4 |
| O=C(O)Cn1c[n+](NC(=O)Cc2ccccc2)cn1 | > 10 | > 10 | – | > 10 | > 10 | > 10 | > 10 | > 10 | > 10 | > 10 | > 10 |
| Nc1cc2nc(-c3ccccc3)cn2cn1 | > 100 | > 100 | > 100 | > 100 | > 100 | – | > 100 | > 100 | – | 95.3 | > 100 |
| Cn1c(=O)c2[nH]c(Nc3cccc(Cl)c3)nc2n(C)c1=O | – | > 10 | > 10 | > 10 | > 10 | – | – | > 10 | > 10 | > 10 | > 10 |
| COC(=O)Cc1c2n(c3ccccc13)C(=O)N1c3ccccc3C(CC(=O)OC)C21 (stereo unspecified) | 93.9 | > 100 | > 100 | – | 67.3 | > 100 | > 100 | > 100 | > 100 | > 100 | > 100 |
| COc1ccccc1Cn1c2c(c3cc(O)ccc31)C(=O)c1ccccc1C2=O | > 100 | > 100 | > 100 | > 100 | 38.2 | – | 40.4 | 10 | > 100 | – | 96.7 |
| Cc1ccc2nc(Nc3ccccc3C)c(Nc3ccccc3C)nc2c1 | – | > 100 | > 74.6 | 81.8 | > 100 | 35.9 | > 100 | > 100 | 72.3 | > 100 | > 100 |
| Cc1cccc2c(N)c3cccc(C(=O)NCC[N+](C)(C)[O-])c3nc12 | 41.8 | > 100 | > 100 | 55 | 75.1 | – | > 100 | 64.6 | 60.3 | 87.4 | > 100 |
| O=C(O[C@@H](/C=C/c1ccccc1)P1(=O)N(Cc2ccccc2)[C@@H]2CCCC[C@H]2N1Cc1ccccc1)c1ccccc1 | > 100 | – | > 100 | > 100 | 9.18 | > 100 | > 100 | > 100 | > 100 | > 100 | > 100 |
| CCC1(c2ccc(OC)c(OC)c2)CCN2C(=O)C(O)CC21 (stereo unspecified) | > 100 | > 100 | – | > 100 | > 100 | > 100 | > 100 | > 100 | > 100 | > 100 | > 100 |
| CN(C)CCN1C(=O)N(CCN(C)C)c2c3cc(O)ccc3nc3c([N+](=O)[O-])ccc1c23 | 40.6 | 27 | – | – | 25.4 | 33.3 | 86.3 | – | 29.2 | – | – |
